Measured values published in ChEMBL document CHEMBL1201862, “PubChem BioAssay data set” (2004).
Activity calls are given as the source filed them.

Columns and labels:
Troponin, cardiac muscle = Troponin, cardiac muscle (Homo sapiens, UniProt P19429+P45379+P63316); assay: Fluorescence-based biochemical high throughput dose response assay for activators of the calcium sensitivity of cardiac Regulated Thin Filaments (RTF). [Related pubchem assays (depositor defined):AID493008, AID493018, AID504382, AID504383]; format: protein-complex assay
Mu-type opioid receptor [1] = molecular target: T1, Mu-type opioid receptor (Homo sapiens, UniProt P35372); assay: SAR Analysis of Agonists of the MOR Receptor using an Image-Based Assay - Set 2. [Related pubchem assays (depositor defined):AID1777, AID1785, AID1786, AID1966, AID2133, AID2136, AID2284, AID2285, AID2352]; format: functional
[2] = molecular target: T2, Kappa-type opioid receptor (Homo sapiens, UniProt P41145); assay: SAR analysis of Agonists of the Kappa Opioid Receptor (KOR) using an Image-Based Assay - Set 2. [Related pubchem assays (depositor defined):AID1777, AID1786, AID1966, AID2133, AID2136, AID2284, AID2285, AID2359]; format: functional
[3] = molecular target: T2, Kappa-type opioid receptor; assay: SAR analysis of Antagonists of the Kappa Opioid Receptor (KOR) using an Image-Based Assay - Set 2. [Related pubchem assays (depositor defined):AID1777, AID1785, AID1786, AID1966, AID2133, AID2136, AID2284, AID2285, AID2348]; format: functional
[4] = molecular target: T2, Kappa-type opioid receptor; assay: SAR analysis of small molecule agonists of the kappa opioid receptor via a luminescent beta-arrestin assay - Set 2. [Related pubchem assays (depositor defined):AID1777, AID1785, AID1786, AID1966, AID2133, AID2136, AID2284, AID449737]; format: functional
[5] = molecular target: T3, Delta-type opioid receptor (Homo sapiens, UniProt P41143); assay: SAR Analysis of Antagonists of the DOR Receptor using an Image-Based Assay - Set 2. [Related pubchem assays (depositor defined):AID1777, AID1785, AID1786, AID1966, AID2133, AID2136, AID2284, AID2285, AID2357]; format: functional
Mu-type opioid receptor [6] = molecular target: T1, Mu-type opioid receptor; assay: SAR Analysis of Antagonists of the MOR Receptor using an Image-Based Assay - Set 2. [Related pubchem assays (depositor defined):AID1777, AID1785, AID1786, AID1966, AID2133, AID2136, AID2284, AID2285, AID2420]; format: functional
[7] = molecular target: T3, Delta-type opioid receptor; assay: SAR Analysis of Agonists of the DOR Receptor using an Image-Based Assay - Set 2. [Related pubchem assays (depositor defined):AID1777, AID1785, AID1786, AID1966, AID2133, AID2136, AID2284, AID2285, AID2370]; format: functional
Mucolipin-3 = Mucolipin-3 (Homo sapiens, UniProt Q8TDD5); assay: Fluorescence counterscreen assay for […] agonists: dose response cell-based high-throughput screening assay to identify agonists of the transient receptor potential channel ML3 (TRPML3). [Related pubchem assays: 1424, 1448 ]; format: functional
[8] = non-specific 3'UTR reporter inhibition in Clone20-Shn3RL – cell-based, Renilla luciferase, cherry-picked, counter-screen for Shn3 inhibitor project, dose response (AID 624133); format: functional
[9] = reduction of Shn3 3'UTR-driven luciferase in osteoblasts – cell-based, Clone20 osteoblasts, firefly luciferase, cherry-picked, dose response (AID 624132); format: functional;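 further: firefly luciferase luminescence from reporter carrying the Shn3 3'UTR in osteoblasts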
Ion channel NompC = Ion channel NompC (Danio rerio, UniProt Q7T1G6); assay: Dose response cell-based high-throughput screening assay for agonists of the transient receptor potential channel N1 (TRPN1). [Related pubchem assays (depositor defined):AID1424, AID1448]; format: functional
[10] = loss of viability in HepG2 cells – cell-based, CellTiter-Glo, cherry-picked, cytotoxicity control for Shn3 inhibitor project, dose response (AID 624134); format: functional
[11] = molecular target: Peroxisome proliferator-activated receptor gamma/Nuclear receptor coactivator 1 (Homo sapiens, UniProt P37231); format: functional;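 further: agonist potency as compounds enhance coactivator SRC-1 recruitment to PPARgamma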
[12] = molecular target: DNA dC->dU-editing enzyme APOBEC-3G (Homo sapiens, UniProt Q9HC16); assay: Dose Response confirmation of small molecule APOBEC3G DNA Deaminase Inhibitors via a fluorescence-based single-stranded DNA deaminase assay. [Related pubchem assays (depositor defined):AID493012, AID493028]; format: functional
[13] = molecular target: T4, Dual specificity protein phosphatase 3 (Homo sapiens, UniProt P51452); assay: SAR VHR1 absorbance Assay for In Vitro dose response studies. [Related pubchem assays (depositor defined):AID1654, AID1661, AID1878, AID1992, AID2004]
[14] = molecular target: T4, Dual specificity protein phosphatase 3; assay: VHR1 phosphatase inhibitors, biochemical (AID 1878)
[15] = molecular target: T5, Dual specificity protein phosphatase 6 (Rattus norvegicus, UniProt Q64346); assay: SAR analysis of inhibitors of MKP-3 - Set 2. [Related pubchem assays (depositor defined):AID1055, AID1661, AID425, AID553, AID566]; format: functional
T5 sequence (Q64346 whole entry): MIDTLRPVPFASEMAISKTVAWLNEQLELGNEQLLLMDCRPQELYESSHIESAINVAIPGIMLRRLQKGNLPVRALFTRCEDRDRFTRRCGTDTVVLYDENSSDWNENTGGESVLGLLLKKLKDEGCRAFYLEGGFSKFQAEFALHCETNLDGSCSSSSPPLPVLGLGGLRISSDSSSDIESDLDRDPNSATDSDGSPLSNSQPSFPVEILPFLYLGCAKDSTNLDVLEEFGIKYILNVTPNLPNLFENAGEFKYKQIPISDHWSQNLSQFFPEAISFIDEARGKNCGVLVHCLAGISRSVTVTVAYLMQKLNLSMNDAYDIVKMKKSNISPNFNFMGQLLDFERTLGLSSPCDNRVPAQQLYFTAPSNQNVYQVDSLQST

[16] = molecular target: T4, Dual specificity protein phosphatase 3; assay: SAR VHR1 Fluorescent Assay for In Vitro dose response studies Set 2. [Related pubchem assays (depositor defined):AID1654, AID1661, AID1878]; format: functional
[17] = molecular target: T4, Dual specificity protein phosphatase 3; assay: VHR1 phosphatase inhibitors, primary screen, biochemical, absorbance, uHTS (AID 1654)
[18] = molecular target: DNA dC->dU-editing enzyme APOBEC-3A (Homo sapiens, UniProt P31941); assay: A3A deaminase inhibition for selectivity – biochemical, dose response (AID 504722); format: functional
[19] = molecular target: T6, Tyrosine-protein phosphatase non-receptor type 7 (Homo sapiens, UniProt P35236); assay: redox-active compounds inhibiting HePTP phosphatase – biochemical, fluorescence, mechanism study (AID 2068); format: functional
T6 sequence (P35236 whole entry): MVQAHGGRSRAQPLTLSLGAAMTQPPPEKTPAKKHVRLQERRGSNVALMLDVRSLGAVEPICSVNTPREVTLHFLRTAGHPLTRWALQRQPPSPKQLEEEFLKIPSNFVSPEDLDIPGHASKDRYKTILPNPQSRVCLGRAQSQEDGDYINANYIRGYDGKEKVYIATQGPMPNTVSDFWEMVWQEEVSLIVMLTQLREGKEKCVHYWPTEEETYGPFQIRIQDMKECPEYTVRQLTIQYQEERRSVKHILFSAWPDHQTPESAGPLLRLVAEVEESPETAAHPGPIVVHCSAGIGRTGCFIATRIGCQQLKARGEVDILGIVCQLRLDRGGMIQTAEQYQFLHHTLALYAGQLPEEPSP

[20] = molecular target: Peroxisome proliferator-activated receptor gamma/Nuclear receptor coactivator 3 (Homo sapiens, UniProt P37231); format: functional;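 further: agonist potency for raising coactivator recruitment to the receptor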
[21] = molecular target: Peroxisome proliferator-activated receptor gamma/Nuclear receptor coactivator 2 (Homo sapiens, UniProt P37231); format: functional;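 further: agonist potency for raising coactivator recruitment to the receptor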
[22] = molecular target: T4, Dual specificity protein phosphatase 3; assay: SAR VHR1 Fluorescent Assay for In Vitro dose response studies. [Related pubchem assays (depositor defined):AID1654, AID1661, AID1878, AID1992, AID2004, AID2070, AID2085]; format: functional
[23] = molecular target: T6, Tyrosine-protein phosphatase non-receptor type 7; assay: SAR analysis of chemical inhibitors of HePTP using a Fluorescent assay - Set 2. [Related pubchem assays (depositor defined):AID1059, AID1077, AID1661, AID2085, AID521]; format: functional
[24] = molecular target: T5, Dual specificity protein phosphatase 6; assay: inhibition of rat DUSP6 enzyme activity – biochemical, in vitro, primary screen (AID 425)
[25] = molecular target: T5, Dual specificity protein phosphatase 6; format: functional
[26] = molecular target: Glucose-6-phosphate 1-dehydrogenase (Homo sapiens, UniProt P11413); assay: inhibition of Homo sapiens G6PD, dose series – biochemical, fluorescence, selectivity assay for P. falciparum G6PD inhibitor project, dose response (AID 504792); format: functional
Glucose-6-phosphate 1-dehydrogenase, sequence (P11413 whole entry): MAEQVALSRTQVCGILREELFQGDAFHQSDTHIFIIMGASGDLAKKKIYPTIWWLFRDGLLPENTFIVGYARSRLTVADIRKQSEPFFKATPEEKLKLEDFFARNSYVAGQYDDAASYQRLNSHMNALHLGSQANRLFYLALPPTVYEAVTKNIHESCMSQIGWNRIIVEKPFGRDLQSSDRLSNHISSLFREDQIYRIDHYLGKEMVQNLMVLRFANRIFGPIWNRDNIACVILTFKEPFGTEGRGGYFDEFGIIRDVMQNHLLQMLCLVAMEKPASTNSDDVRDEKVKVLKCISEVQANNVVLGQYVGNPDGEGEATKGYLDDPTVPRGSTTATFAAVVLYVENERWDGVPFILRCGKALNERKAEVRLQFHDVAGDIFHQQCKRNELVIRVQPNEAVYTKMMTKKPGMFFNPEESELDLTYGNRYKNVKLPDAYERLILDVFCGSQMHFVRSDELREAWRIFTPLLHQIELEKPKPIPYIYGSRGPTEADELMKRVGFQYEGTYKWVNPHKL

T4 sequence (P51452 whole entry): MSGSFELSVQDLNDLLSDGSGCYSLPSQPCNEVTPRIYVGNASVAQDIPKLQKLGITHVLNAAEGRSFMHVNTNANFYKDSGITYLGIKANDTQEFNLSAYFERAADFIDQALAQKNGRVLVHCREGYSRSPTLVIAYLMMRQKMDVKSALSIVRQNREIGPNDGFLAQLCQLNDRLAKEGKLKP
T2 sequence (P41145 whole entry): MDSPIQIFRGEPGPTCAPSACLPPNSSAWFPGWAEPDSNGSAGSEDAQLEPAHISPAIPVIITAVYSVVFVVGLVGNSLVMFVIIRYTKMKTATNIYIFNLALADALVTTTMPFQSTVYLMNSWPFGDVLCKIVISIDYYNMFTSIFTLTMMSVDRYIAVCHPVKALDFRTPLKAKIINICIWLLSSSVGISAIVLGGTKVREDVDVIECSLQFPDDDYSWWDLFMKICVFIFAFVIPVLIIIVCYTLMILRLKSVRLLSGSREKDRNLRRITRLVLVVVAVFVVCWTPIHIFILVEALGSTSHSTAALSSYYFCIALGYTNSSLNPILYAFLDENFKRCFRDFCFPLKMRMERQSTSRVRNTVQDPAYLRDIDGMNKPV
T1 sequence (P35372 whole entry): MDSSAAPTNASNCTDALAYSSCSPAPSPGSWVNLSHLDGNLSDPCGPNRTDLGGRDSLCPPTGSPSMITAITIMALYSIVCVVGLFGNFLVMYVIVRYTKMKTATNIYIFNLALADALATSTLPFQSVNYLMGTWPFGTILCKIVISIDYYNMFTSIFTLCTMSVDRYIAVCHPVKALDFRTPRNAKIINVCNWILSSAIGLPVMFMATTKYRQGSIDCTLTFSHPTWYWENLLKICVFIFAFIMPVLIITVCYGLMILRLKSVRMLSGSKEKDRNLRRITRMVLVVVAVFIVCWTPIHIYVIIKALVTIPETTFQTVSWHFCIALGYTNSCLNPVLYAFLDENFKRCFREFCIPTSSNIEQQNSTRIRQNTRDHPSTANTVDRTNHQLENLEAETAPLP
T3 sequence (P41143 whole entry): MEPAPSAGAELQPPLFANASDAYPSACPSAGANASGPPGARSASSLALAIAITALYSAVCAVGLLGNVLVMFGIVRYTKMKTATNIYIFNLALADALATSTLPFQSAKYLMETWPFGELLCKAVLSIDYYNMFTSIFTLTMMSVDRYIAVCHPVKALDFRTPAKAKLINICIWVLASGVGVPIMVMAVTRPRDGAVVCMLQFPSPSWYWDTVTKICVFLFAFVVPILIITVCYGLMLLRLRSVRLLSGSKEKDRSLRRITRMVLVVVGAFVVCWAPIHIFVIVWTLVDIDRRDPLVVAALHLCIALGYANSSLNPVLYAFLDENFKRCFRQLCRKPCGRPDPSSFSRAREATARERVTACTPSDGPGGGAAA
Mucolipin-3, sequence (Q8TDD5 whole entry): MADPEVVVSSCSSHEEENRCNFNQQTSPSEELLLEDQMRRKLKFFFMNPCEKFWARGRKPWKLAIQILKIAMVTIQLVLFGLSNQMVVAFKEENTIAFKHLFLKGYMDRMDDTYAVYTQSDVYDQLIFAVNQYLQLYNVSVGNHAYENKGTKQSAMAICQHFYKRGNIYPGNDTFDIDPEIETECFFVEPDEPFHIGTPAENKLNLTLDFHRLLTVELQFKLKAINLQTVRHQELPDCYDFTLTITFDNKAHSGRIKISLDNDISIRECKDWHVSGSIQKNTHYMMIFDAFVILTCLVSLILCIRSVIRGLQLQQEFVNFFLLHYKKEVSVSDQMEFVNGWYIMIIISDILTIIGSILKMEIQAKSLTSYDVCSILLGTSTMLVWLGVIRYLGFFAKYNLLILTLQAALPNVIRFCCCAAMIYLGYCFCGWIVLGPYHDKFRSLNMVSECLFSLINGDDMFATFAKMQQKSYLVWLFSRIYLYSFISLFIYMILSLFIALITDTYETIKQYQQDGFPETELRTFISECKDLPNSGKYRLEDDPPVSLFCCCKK
DNA dC->dU-editing enzyme APOBEC-3A, sequence (P31941 whole entry): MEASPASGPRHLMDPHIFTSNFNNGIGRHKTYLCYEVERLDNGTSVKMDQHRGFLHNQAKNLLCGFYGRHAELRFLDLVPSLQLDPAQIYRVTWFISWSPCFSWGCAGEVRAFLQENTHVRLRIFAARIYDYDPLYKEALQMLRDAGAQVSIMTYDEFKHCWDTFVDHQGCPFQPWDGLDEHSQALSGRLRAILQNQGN
Ion channel NompC, sequence (Q7T1G6 whole entry): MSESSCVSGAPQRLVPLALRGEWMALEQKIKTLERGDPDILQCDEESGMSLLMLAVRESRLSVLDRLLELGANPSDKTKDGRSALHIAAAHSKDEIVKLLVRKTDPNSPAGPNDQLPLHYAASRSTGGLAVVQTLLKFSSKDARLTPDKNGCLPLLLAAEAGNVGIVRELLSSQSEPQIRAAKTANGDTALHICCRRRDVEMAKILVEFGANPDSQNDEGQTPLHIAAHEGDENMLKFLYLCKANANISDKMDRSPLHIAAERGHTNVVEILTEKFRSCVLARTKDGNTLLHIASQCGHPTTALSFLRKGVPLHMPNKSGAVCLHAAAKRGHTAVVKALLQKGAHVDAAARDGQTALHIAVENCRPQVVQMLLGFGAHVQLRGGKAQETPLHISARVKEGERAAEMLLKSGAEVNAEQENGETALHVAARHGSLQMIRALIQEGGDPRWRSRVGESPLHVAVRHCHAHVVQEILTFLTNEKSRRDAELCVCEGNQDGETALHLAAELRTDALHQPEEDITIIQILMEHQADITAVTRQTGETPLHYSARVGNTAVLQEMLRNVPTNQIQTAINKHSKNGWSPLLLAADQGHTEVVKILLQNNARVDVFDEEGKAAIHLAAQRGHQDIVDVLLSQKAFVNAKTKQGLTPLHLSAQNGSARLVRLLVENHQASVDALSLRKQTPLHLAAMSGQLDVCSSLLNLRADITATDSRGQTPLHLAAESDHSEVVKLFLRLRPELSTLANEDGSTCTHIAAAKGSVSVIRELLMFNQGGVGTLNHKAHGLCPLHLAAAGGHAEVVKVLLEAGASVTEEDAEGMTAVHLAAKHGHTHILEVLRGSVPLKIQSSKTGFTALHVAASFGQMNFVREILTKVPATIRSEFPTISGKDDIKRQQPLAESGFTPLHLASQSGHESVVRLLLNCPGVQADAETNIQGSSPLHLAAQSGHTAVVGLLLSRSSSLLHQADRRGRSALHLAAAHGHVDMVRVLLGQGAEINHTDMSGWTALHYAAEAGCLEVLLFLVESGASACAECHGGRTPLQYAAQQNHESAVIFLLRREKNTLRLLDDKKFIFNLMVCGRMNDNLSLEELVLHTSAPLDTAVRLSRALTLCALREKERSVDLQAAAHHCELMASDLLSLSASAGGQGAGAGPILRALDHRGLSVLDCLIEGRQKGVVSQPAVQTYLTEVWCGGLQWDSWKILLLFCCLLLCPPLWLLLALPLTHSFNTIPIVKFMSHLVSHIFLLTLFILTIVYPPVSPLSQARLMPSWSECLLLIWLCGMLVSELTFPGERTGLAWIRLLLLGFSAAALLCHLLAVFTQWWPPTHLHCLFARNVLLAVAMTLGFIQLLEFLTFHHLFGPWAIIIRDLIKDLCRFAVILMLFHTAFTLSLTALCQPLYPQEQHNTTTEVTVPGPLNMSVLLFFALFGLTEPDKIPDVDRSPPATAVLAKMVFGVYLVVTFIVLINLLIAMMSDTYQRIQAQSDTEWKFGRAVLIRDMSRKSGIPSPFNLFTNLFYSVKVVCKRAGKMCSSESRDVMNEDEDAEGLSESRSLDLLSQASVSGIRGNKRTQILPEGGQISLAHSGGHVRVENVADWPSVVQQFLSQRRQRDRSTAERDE
DNA dC->dU-editing enzyme APOBEC-3G, sequence (Q9HC16 whole entry): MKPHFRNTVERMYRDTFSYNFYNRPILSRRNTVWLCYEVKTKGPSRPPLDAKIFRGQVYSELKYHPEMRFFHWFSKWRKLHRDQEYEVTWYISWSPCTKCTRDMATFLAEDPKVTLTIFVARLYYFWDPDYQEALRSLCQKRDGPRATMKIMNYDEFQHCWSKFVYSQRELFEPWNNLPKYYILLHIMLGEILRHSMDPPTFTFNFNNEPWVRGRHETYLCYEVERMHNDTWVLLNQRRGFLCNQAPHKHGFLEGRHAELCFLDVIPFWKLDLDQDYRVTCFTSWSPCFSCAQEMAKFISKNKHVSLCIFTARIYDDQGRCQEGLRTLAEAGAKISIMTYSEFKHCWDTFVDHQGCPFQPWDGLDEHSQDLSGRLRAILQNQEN

## C=CCN1C(=O)c2ccccc2NC1c1cc(Br)cs1 (centres undefined)
Troponin, cardiac muscle
  EC50: > 71.5 µM (inactive)

## Fc1ccc(CSc2nnc(-c3ccccn3)n2Cc2cccs2)c(F)c1
Mu-type opioid receptor [1]
  EC50: > 32 µM (inactive)
[2]
  EC50: 5.68 µM (active)
[3]
  IC50: > 32 µM (inactive)
[4]
  EC50: 6.73 µM (active)
[5]
  IC50: > 32 µM (inactive)
Mu-type opioid receptor [6]
  IC50: > 32 µM (inactive)
[7]
  EC50: > 32 µM (inactive)

## Cc1ccc([N+](=O)[O-])cc1NC(=O)Nc1cccc(F)c1
Mucolipin-3
  EC50: > 29.9 µM (not active)
[8]
  AC50: 2.13 µM (active)
[9]
  AC50: 2.21 µM (active)
Ion channel NompC
  EC50: > 29.9 µM (inactive)
[10]
  AC50: 7.82 µM (active)

## Cc1ccc(-n2c(N)c(C(=O)N3CCN(C)CC3)sc2=S)cc1
[11]
  EC50: > 79.4 µM (not active)
[12]
  IC50: 7.99 µM (active)
[13]
  IC50: 0.25 µM (active)
[14]
  IC50: 5.73 µM (active)
[15]
  IC50: > 100 µM (inactive)
[16]
  IC50: 0.402 µM (active)
[17]
  IC50: 2.33 µM (active)
[18]
  IC50: > 100 µM (inactive)
[19]
  IC50: 0.0144 µM (active)
[20]
  EC50: > 79.4 µM (not active)
[21]
  EC50: > 79.4 µM (not active)
[22]
  IC50: > 99 µM (inactive)
[23]
  IC50: 0.455 µM (active)
[24]
  IC50: > 158 µM (not active)
[25]
  IC50: > 99 µM (inactive)
[26]
  IC50: > 80 µM (inactive)
